Values quoted from earlier work as cited in US6387949B1, “Substituted urea compounds useful in pain management” (AstraZeneca Canada Inc., priority 1998, dated 2002).

Columns and labels:
δ receptor = δ receptor (Homo sapiens, UniProt P41143); conditions: background statement
[1] = background statement

δ receptor, sequence (P41143 whole entry): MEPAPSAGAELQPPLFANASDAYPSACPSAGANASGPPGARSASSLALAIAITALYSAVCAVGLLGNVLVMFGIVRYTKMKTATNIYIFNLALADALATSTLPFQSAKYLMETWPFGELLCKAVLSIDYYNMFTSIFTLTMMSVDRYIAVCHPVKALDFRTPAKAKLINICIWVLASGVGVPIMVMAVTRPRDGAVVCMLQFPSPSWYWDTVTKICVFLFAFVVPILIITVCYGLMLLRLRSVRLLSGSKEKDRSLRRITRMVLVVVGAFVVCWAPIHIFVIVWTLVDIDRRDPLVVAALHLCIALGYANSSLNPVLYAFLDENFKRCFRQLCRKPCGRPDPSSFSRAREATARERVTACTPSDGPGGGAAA

Oc1ccc2c3c1O[C@H]1c4[nH]c5ccccc5c4C[C@@]4(O)[C@@H](C2)N(CC2CC2)CC[C@]314 [naltrindole]
selectivity for the δ receptor vs. μ receptor binding (δ receptor): < 10 fold | analgesic activity [1]: no analgesic activity
